The structures appear in SMILES notation. Activity calls are given as the source filed them. No cut-off for these calls is given here.

For series [1], the system named is RAW264.7. The series is described as follows: Cytotoxicity against mouse RAW264.7 cells assessed as effect on cell viability at 2.5 to 20 uM measured after 24 hrs by CCK8 assay. To be noted: raw264.7, 24 h, dose 2.5-20 µM. The series is classed as toxicity, cell-based.
The test system of series [2] is RAW264.7. The series is described as follows: Inhibition of NF-kappaB signaling pathway in mouse RAW264.7 cells assessed as decrease in IkappaBalpha phosphorylation at Ser32 residue at 2.5 to 5 uM pretreated for 1 hr followed by LPS stimulation for 25 mins by western blot analysis. The series is classed as cell-based. To be noted: dose 2.5-5 µM, time 85.0 min. A general note: Immunoblotting shows a protein as a band on a membrane.

Series [3] deals with RAW264.7. Kind of series: Antiinflammatory activity against mouse RAW264.7 cells assessed as inhibition of LPS-induced PGE2 production pretreated for 2 hrs followed by LPS stimulation for 24 hrs by ELISA. It is filed as functional, cell-based. To be noted: dose 2.5-20 µM, time 26.0 hrs. A general note: ELISA stands for enzyme-linked immunosorbent assay.
The subject of series [4] is RAW264.7. The series is described as follows: Inhibition of MAPK signaling pathway in mouse RAW264.7 cells assessed as decrease in p38 phosphorylation at 2.5 to 5 uM pretreated for 1 hr followed by LPS stimulation for 25 mins by western blot analysis. It is filed as cell-based. As to conditions: dose 2.5-5 µM, time 85.0 min.
Series [5] relates to RAW264.7. The series is described as follows: Inhibition of MAPK signaling pathway in mouse RAW264.7 cells assessed as decrease in ERK1/2 phosphorylation at 2.5 to 5 uM pretreated for 1 hr followed by LPS stimulation for 25 mins by western blot analysis. It is filed as cell-based. To be noted: dose 2.5-5 µM, time 85.0 min.
In series [6] the test system is RAW264.7. Kind of series: Inhibition of NF-kappaB signaling pathway in mouse RAW264.7 cells assessed as decrease in NF-kappaB p65 phosphorylation at Ser536 residue at 2.5 to 5 uM pretreated for 1 hr followed by LPS stimulation for 25 mins by western blot analysis. As to conditions: dose 2.5-5 µM, time 85.0 min. The series is classed as cell-based.
Series [7] has as its system RAW264.7. The series is described as follows: Antiinflammatory activity against mouse RAW264.7 cells assessed as inhibition of LPS-induced COX-2 protein expression at 2.5 to 5 uM pretreated for 1 hr followed by LPS stimulation for 25 mins by western blot analysis. It is filed as functional, cell-based. To be noted: dose 2.5-5 µM, time 85.0 min.
The subject of series [8] is RAW264.7. Kind of series: Antiinflammatory activity against mouse RAW264.7 cells assessed as inhibition of LPS-induced TNF-alpha production pretreated for 2 hrs followed by LPS stimulation for 24 hrs by ELISA. It is filed as functional, cell-based. To be noted: dose 2.5-20 µM, time 26.0 hrs.
The subject of series [9] is RAW264.7. The series is described as follows: Antiinflammatory activity against mouse RAW264.7 cells assessed as inhibition of LPS-induced IL-6 production pretreated for 2 hrs followed by LPS stimulation for 24 hrs by ELISA. The series is classed as functional, cell-based. As to conditions: dose 2.5-20 µM, time 26.0 hrs.
The test system of series [10] is RAW264.7. Kind of series: Inhibition of MAPK signaling pathway in mouse RAW264.7 cells assessed as decrease in JNK phosphorylation at 2.5 to 5 uM pretreated for 1 hr followed by LPS stimulation for 25 mins by western blot analysis. It is filed as cell-based. To be noted: dose 2.5-5 µM, time 85.0 min.
Series [11] concerns RAW264.7. The series is described as follows: Antiinflammatory activity against mouse RAW264.7 cells assessed as inhibition of LPS-induced NO production pretreated for 2 hrs followed by LPS stimulation for 24 hrs by ELISA. The series is classed as functional, cell-based. As to conditions: dose 2.5-20 µM, time 26.0 hrs.

Consider `CC1=CCC[C@H]2[C@](C)(CC3=CC(=O)C=C(NCCO)C3=O)[C@@H](C)CC[C@]12C`, for which the Activity result in the series with RAW264.7 [1] is reported as “Non-toxic”.
For the compound `C[C@H]1CC[C@@]2(C)[C@@H](CC[C@@H](O)[C@@]2(C)O)[C@]1(C)Cc1cc(O)cc2nc3n(c12)CCC3`, the Activity entry with RAW264.7 [1] is recorded as “Non-toxic”.
In the case of `CC1=CCC[C@H]2[C@](C)(CC3=CC(=O)C(NCCO)=CC3=O)[C@@H](C)CC[C@]12C`, the Activity result in the series with RAW264.7 [1] is on record as “Non-toxic”.
As to `C=C1CCC[C@H]2[C@](C)(Cc3cc(O)cc(C(C)=O)c3O)[C@@H](C)CC[C@]12C`, the inhibition result in the series on RAW264.7 [2], in the series on RAW264.7 [4], with RAW264.7 [5], in the series with RAW264.7 [6] and with RAW264.7 [10] was “Active” throughout. Further, the Activity entry in the series with RAW264.7 [3] is “Dose-dependent-effect”; with RAW264.7 [1], “Non-toxic”; in the series with RAW264.7 [8], “Dose-dependent-effect”; with RAW264.7 [9], “Dose-dependent-effect”; in the series on RAW264.7 [11], “Dose-dependent-effect”. Moreover, the outcome with RAW264.7 [7] was Active.
As for `CC1=CCC[C@H]2[C@](C)(Cc3cc4c(cc3O)[n+](CCS(=O)(=O)[O-])c3n4CCC3)[C@@H](C)CC[C@]12C`, in the series with RAW264.7 [1], the Activity entry is reported as “Non-toxic”.
Consider `CC1=CCC[C@H]2[C@](C)(CC3=CC(=O)C=C(N(C)CCO)C3=O)[C@@H](C)CC[C@]12C`, for which, in the series with RAW264.7 [1], the Activity result was “Non-toxic”.
Take `CC(=O)c1cc(O)cc(C[C@]2(C)[C@@H](C)CC[C@]3(C)C(C)=CCC[C@@H]23)c1O`: the Activity entry in the series with RAW264.7 [1] is given as “Non-toxic”.

These data come from ChEMBL document CHEMBL6182875, “Cinerols L-R, Anti-inflammatory Meroterpenoids from the Marine Sponge Dysidea cinerea” (J Nat Prod, 2025).
